Laboratory results published in patent publication US8987195B2 (priority 2012, dated 2015).
Like-named read-outs stand apart in the source and are kept apart here.

Legend:
[1] = system: HCV genotype 1b replicon; assay: HCV replicon assay, genotype 1b replicon EC50; type: cell-based, Hepatitis C virus; conditions: Hepatitis C virus, genotype 1b replicon; read-out: EC50 [gt-1b]
How it was run: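 Cells harbouring a stable replicon are grown under G418 selection, then plated with test compound in G418-free medium for 24-48 hours. After washing and lysis, RNA or luciferase signal is measured and expressed as percent of DMSO control to give EC50.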

[2] = target: HCV NS3/4A protease genotype 1b (Hepatitis C virus genotype 1b, UniProt P26663); assay: HCV NS3/4A protease time-resolved fluorescence (TRF) assay, Ki against genotype 1b; type: biochemical
How it was run: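 First, protease (genotype 1b 0.2 nM, A156T 0.4 nM, genotype 3a 0.025 nM) is preincubated 30 min with inhibitor. Next, 25 nM TRF substrate starts the reaction, run 2.5 h at room temperature. Finally, europium fluorescence is read and Ki calculated from IC50.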

[3] = target: HCV NS3/4A protease A156T mutant (Hepatitis C virus genotype 1b, UniProt P26663, A1182T); assay: HCV NS3/4A protease time-resolved fluorescence (TRF) assay, Ki against A156T mutant; type: biochemical
Procedure: (§1) Measuring NS3/4A Inhibitory Activity (Ki) Against Genotype 1b, Against A156T Mutants and Against Genotype 3a
(§2) One assay for measuring inhibitory activity is HCV NS3 protease time-resolved fluorescence (TRF) assay as described below and in Mao et al., Anal. Biochem. 373:1-8, 2008 and International Patent Application Publication WO 2006/102087. A NS3 protease assay can be performed, for example, in a final volume of 20 μl assay buffer containing 50 mM HEPES, pH 7.5, 150 mM NaCl, 15% glycerol, 0.15% TRITON X-100, 10 mM DTT, and 0.1% PEG 8000. NS3 and NS4A protease is pre-incubated with various concentrations of inhibitors in DMSO for 30 min. The reaction is initiated by adding the TRF peptide substrate (final concentration 25 nM). NS3 mediated hydrolysis of the substrate was run for 2.5 hours at room temperature. Product fluorescence is detected using A Pherastar Plus plate reader (BMG) or Envision (Perkin Elmer Life and Analytical Sciences with excitation at 340 nm and emission at 615 nm using the appropriate delay time optimized for the europium fluorescence probe. Testing concentrations of different enzyme forms are selected to result in a signal to background ratio (S/B) of 10-30. IC50 values are derived using a standard four-parameter fit to the data. Ki values are derived from IC50 values using the following formula, IC50=Ki(1+[S]/KM), Eqn (1), where [S] is the concentration of substrate peptide in the reaction and KM is the Michaelis constant. See P. Gallinari et al., 38 BIOCHEM. 5620-32 (1999); P. Gallinari et al., 72 J. VIROL. 6758-69 (1998); M. Taliani et al., 240 ANAL. BIOCHEM. 60-67 (1996); Mao et al., Analytical Biochemistry 373: 1-8, 2008.
(§3) The assay described above was run against genotype 1b at a concentration of 0.2 nM, against A156T mutant strains at a concentration of 0.4 nM, and against genotype 3a at a concentration of 0.025 nM.

[4] = target: HCV NS3/4A protease genotype 3a (Hepatitis C virus genotype 3a, UniProt Q81495); assay: HCV NS3/4A protease time-resolved fluorescence (TRF) assay, Ki against genotype 3a; type: biochemical
Procedure: as §1, §2, §3

[5] = IC50 [gt-1b] (nM), NS3/4A genotype 1b, enzyme 0.2 nM
[6] = NS3/4A gt-1b A156T mutant, enzyme 0.4 nM, read-out: IC50 [gt-1b A156T]
[7] = IC50 [gt-1b], NS3/4A protease TRF assay, genotype 1b enzyme 0.2 nM
[8] = NS3/4A protease TRF assay, A156T mutant enzyme 0.4 nM, read-out: IC50 [gt-1b A156T]

Structure (SMILES)	EC50 [1] [nM]	IC50 [4] [nM]	IC50 [3, 6] [nM]	IC50 [2, 7] [nM]	IC50 [3, 8] [nM]	other results
COc1ccc2nc(C(F)(F)F)c3c(c2c1)CC[C@]1(C[C@H]2C(=O)N[C@]4(C(=O)NS(=O)(=O)C5(C)CC5)C[C@H]4/C=C\CCCCC[C@H](NC(=O)OCC(C)C)C(=O)N2C1)O3 [Example 6, Isobutyl ((2R,6S,13aS,14aR,16aS,Z)-9′-methoxy-14a-(((1-methylcyclopropyl)sulfonyl)carbamoyl)-5,16-dioxo-5′-(trifluoromethyl)-1′,2′,3,5,6,7,8,9,10,11,13a,14,14a, 15,16,16a-hexadecahydro-1H-spiro[cyclopropa[e]pyrrolo[1,2-a][1,4]diazacyclopentadecine-2,3′-pyrano[2,3-c]quinolin]-6-yl)carbamate]	1.23	0.53	–	–	–	IC50 [2, 5]: 0.016 nM; IC50 [3]: 0.591 nM
CC(C)(C)OC(=O)N[C@H]1CCCCC/C=C\[C@@H]2C[C@@]2(C(=O)NS(=O)(=O)C2(C)CC2)NC(=O)[C@@H]2C[C@]3(CCc4c(c(C(F)(F)F)nc5ccc(OCCCN6CCOCC6)cc45)O3)CN2C1=O [Example 50, tert-Butyl ((2R,6S,13aS,14aR,16aS,Z)-14a-(((1-methylcyclopropyl)sulfonyl)carbamoyl)-9′-(3-morpholinopropoxy)-5,16-dioxo-5′-(trifluoromethyl)-1′,2′,3,5,6,7,8,9, 10,11,13a,14,14a,15,16,16a-hexadecahydro-1H-spiro[cyclopropa[e]pyrrolo[1,2-a][1,4]diazacyclopentadecine-2,3′-pyrano[2,3-c]quinolin]-6-yl)carbamate]	0.284	0.0965	0.0786	–	–	IC50 [2, 5]: 0.01 nM
Cc1nc2ccccc2c2c1O[C@@]1(CC2)C[C@H]2C(=O)N[C@]3(C(=O)NS(=O)(=O)C4(C)CC4)C[C@H]3/C=C\CCCCC[C@H](NC(=O)NC(C)(C)C)C(=O)N2C1 [Example 78, (2S,6S,12Z,13aS,14aR,16aS)-6-[(tert-butylcarbamoyl)amino]-5′-methyl-N-[(1-methylcyclopropyl)sulfonyl]-5,16-dioxo-1,1′,2′,6,7,8,9,10,11,13a,14,15,16,16a-tetradecahydrospiro[cyclopropa[e]pyrrolo[1,2-a][1,4]diazacyclopentadecine-2,3′-pyrano[2,3-c]quinoline]-14a(5H)-carboxamide]	85	–	3.11	–	–	–
Cc1nc2ccccc2c2c1O[C@]1(CC2)C[C@H]2C(=O)N[C@]3(C(=O)NS(=O)(=O)C4(C)CC4)C[C@H]3/C=C\CCCCC[C@H](NC(=O)OC3(C)CC3)C(=O)N2C1 [Example 79, 1-methylcyclopropyl [(2R,6S,12Z,13aS,14aR,16aS)-5′-methyl-14a-{[(1-methylcyclopropyl)sulfonyl]carbamoyl}-5,16-dioxo-1,1′,2′,5,6,7,8,9,10,11,13a,14,14a,15,16,16a-hexadecahydrospiro[cyclopropa[e]pyrrolo[1,2-a][1,4]diazacyclopentadecine-2,3′-pyrano[2,3-c]quinolin]-6-yl]carbamate]	1.69	–	0.151	–	–	–
COc1cc(Cl)c2nc(C(F)(F)F)c3c(c2c1)CC[C@]1(C[C@H]2C(=O)N[C@]4(C(=O)NS(=O)(=O)C5(C)CC5)C[C@H]4/C=C\CCCCC[C@H](NC(=O)OC(C)(C)C)C(=O)N2C1)O3 [Example 398, tert-butyl [(2R,6S,12Z,13aS,14aR,16aS)-7′-chloro-9′-methoxy-14a-{[(1-methylcyclopropyl)sulfonyl]carbamoyl}-5,16-dioxo-5′-(trifluoromethyl)-1,1′,2′,5,6,7,8,9,10,11,13a,14,14a,15,16,16a-hexadecahydrospiro[cyclopropa[e]pyrrolo[1,2-a][1,4]diazacyclopentadecine-2,3′-pyrano[2,3-c]quinolin]-6-yl]carbamate]	–	2.35	–	0.025	0.496	–
COc1cc(Cl)c2nc(C(F)(F)F)c3c(c2c1)CC[C@]1(C[C@H]2C(=O)N[C@]4(C(=O)NS(=O)(=O)C5(C)CC5)C[C@H]4/C=C\CCCCC[C@H](NC(=O)OCC(C)C)C(=O)N2C1)O3 [Example 399, 2-methylpropyl [(2R,6S,12Z,13aS,14aR,16aS)-7′-chloro-9′-methoxy-14a-{[(1-methylcyclopropyl)sulfonyl]carbamoyl}-5,16-dioxo-5′-(trifluoromethyl)-1,1′,2′,5,6,7,8,9,10,11,13a,14,14a,15,16,16a-hexadecahydrospiro[cyclopropa[e]pyrrolo[1,2-a][1,4]diazacyclopentadecine-2,3′-pyrano[2,3-c]quinolin]-6-yl]carbamate]	–	6.45	–	0.027	1.45	–
COc1ccc2nc(C(F)(F)F)c3c(c2c1)[C@](C)(O)C[C@]1(C[C@H]2C(=O)N[C@]4(C(=O)NS(=O)(=O)C5(C)CC5)C[C@H]4/C=C\CCCCC[C@H](NC(=O)OC4(C)CCC4)C(=O)N2C1)O3 [Example 507, 1-methylcyclobutyl [(1′R,2S,6S,12Z,13aS,14aR,16aS)-1′-hydroxy-9′-methoxy-1′-methyl-14a-{[(1-methylcyclopropyl)sulfonyl]carbamoyl}-5,16-dioxo-5′-(trifluoromethyl)-1,1′,2′,5,6,7,8,9,10,11,13a,14,14a,15,16,16a-hexadecahydrospiro[cyclopropa[e]pyrrolo[1,2-a][1,4]diazacyclopentadecine-2,3′-pyrano[2,3-c]quinolin]-6-yl]carbamate]	–	4.45	–	0.025	2.37	–
COCCCOc1ccc2nc(C(F)(F)F)c3c(c2c1)CC[C@]1(C[C@H]2C(=O)N[C@]4(C(=O)NS(=O)(=O)C5(C)CC5)C[C@H]4/C=C\CCCCC[C@H](NC(=O)OC4(C)CCC4)C(=O)N2C1)O3 [Example 522, 1-methylcyclobutyl [(2R,6S,12Z,13aS,14aR,16aS)-9′-(3-methoxypropoxy)-14a-{[(1-methylcyclopropyl)sulfonyl]carbamoyl}-5,16-dioxo-5′-(trifluoromethyl)-1,1′,2′,5,6,7,8,9,10,11,13a,14,14a,15,16,16a-hexadecahydrospiro[cyclopropa[e]pyrrolo[1,2-a][1,4]diazacyclopentadecine-2,3′-pyrano[2,3-c]quinolin]-6-yl]carbamate]	–	0.311	–	–	–	IC50 ([2]; IC50 [gt-1b], NS3/4A protease TRF assay, genotype 1b enzyme 0.2 nM, K+ salt): 0.005 nM; IC50 ([3]; NS3/4A protease TRF assay, A156T mutant enzyme 0.4 nM, K+ salt, read-out: IC50 [gt-1b A156T]): 0.281 nM
COc1ccc2nc(C(F)F)c3c(c2n1)CC[C@]1(C[C@H]2C(=O)N[C@]4(C(=O)NS(=O)(=O)C5(C)CC5)C[C@H]4/C=C\CCCCC[C@H](NC(=O)O[C@@H]4C[C@@H]5C[C@@H]5C4)C(=O)N2C1)O3 [Example 524, (1R,3r,5S)-bicyclo[3.1.0]hex-3-yl [(2R,6S,12Z,13aS,14aR,16aS)-6′-(difluoromethyl)-2′-methoxy-14a-{[(1-methylcyclopropyl)sulfonyl]carbamoyl}-5,16-dioxo-1,5,6,7,8,9,9′,10,10′,11,13a,14,14a,15,16,16a-hexadecahydrospiro[cyclopropa[e]pyrrolo[1,2-a][1,4]diazacyclopentadecine-2,8′-pyrano[2,3-c][1,5]naphthyridin]-6-yl]carbamate]	–	0.109	–	0.003	0.182	–
C=C[C@@H]1C[C@]1(NC(=O)[C@@H]1C[C@]23CCc4c(c(nc5ccc(OC)cc45)CCCCC[C@@H]4C[C@H]4OC(=O)N[C@@H](C(C)(C)C)C(=O)N1C2)O3)C(=O)NS(=O)(=O)C1(C)CC1 [Example 527]	–	0.679	–	0.026	–	–
